The numbers were not newly measured in patent US20060204588A1, “Formulations of a nanoparticulate finasteride, dutasteride or tamsulosin hydrochloride, and mixtures thereof” (Elan Pharma International Limited, priority 2005, published 2006), which cites them from elsewhere.

For the molecule `C[C@]12C=CC(=O)N[C@@H]1CC[C@@H]1[C@@H]2CC[C@]2(C)[C@@H](C(=O)Nc3cc(C(F)(F)F)ccc3C(F)(F)F)CC[C@@H]12` [Dutasteride, (5α, 17β)-(2,5 bis-(trifluoromethyl)phenyl)-3-oxo-4-azaandrost-1-ene-17-carboxamide], the Solubility in water entry is given as “insoluble”.

For `CC(C)(C)NC(=O)[C@H]1CC[C@H]2[C@@H]3CC[C@H]4NC(=O)C=C[C@]4(C)[C@H]3CC[C@]12C` [Finasteride, (5alpha,17beta)-N-(1,1-dimethylethyl)-3-oxo-4-azaandrost-1-ene-17-carboxamide], the Solubility in water result is recorded as “practically insoluble”. The Solubility in alcohol entry (alcohol) is listed as “soluble”. The Solubility in chloroform entry (chloroform) was “freely soluble”. Further, under “lower alcohol solvents”, the “Solubility in lower alcohol solvents” value was “freely soluble”.

On to `CCOc1ccccc1OCCNC(C)Cc1ccc(OC)c(S(N)(=O)=O)c1.Cl` (single isomer, unassigned; (-)) [Tamsulosin hydrochloride], for which the Solubility in water entry is listed as “sparingly soluble”. In addition, the “Solubility in ethanol (in words)” value (ethanol) is recorded as “slightly soluble”. Also, for the setting “ether”, the Solubility in ether result is listed as “practically insoluble”. In addition, the “Solubility in glacial acetic acid” value (glacial acetic acid) is listed as “slightly soluble”. Besides, the “Solubility in methanol (in words)” value (methanol) is given as “sparingly soluble”.
